In patent US20070049538A1, “METHODS FOR USING CUCURBITACIN COMPOUNDS” (SOUTH DAKOTA STATE UNIVERSITY, priority 2005, published 2007):
Where two headings read alike, the source gives them in different places.

Columns and labels:
[1] = standard compounds; gradient elution and correlation with published data; cited from earlier work
[2] = Chromatographic hydrophobicity index (CHI) by RP-HPLC in buffered methanol; assay type: physicochemical; conditions: for CHIMeOH (b): standard compounds, isochratic and gradient elution of standard mixture
Procedure: (§1) We used Dynamax liquid chromatograph (Varian Chromatography Systems) with PDA-2 photodiode array UV detector, controlled by the Dynamax PC Chromatography Data System (v. 1.9) software and Dynamax dual pump solvent delivery system, model SD-200. […] Cucurbitacins analytical separation was optimized on Alltima C18 (Alltech; 250 mm×4.6 mm, 5 μm) HPLC column, at gradient elution in acetonitrile (ACN, 30-70% ACN in 57 min), and in MeOH (60-75% MeOH in 50 min). Cucurbitacins stock concentration of 10^−2M in DMSO:ethanol (1:1) was standardized against pure cucurbitacin I (Indofine Chemical Company, Hillsborough, N.J.) by analytical HPLC means. Compounds CHI was measured in both ACN, by using Alltima C18 column, and in MeOH, by using Econosil C18 column (Alltech; 150 mm×4.6 mm, 5 μm). Analytical separations were conducted at a flow rate of 1 ml/min. The aqueous phase was buffered for the CHI measurement. For this purpose, solid ammonium acetate (Fisher Sci. Co., Fair Lawn, N.J.) was dissolved in deionized distilled water at 50 mM final concentration and its pH adjusted to 7.0.
A standard mixture of 10 compounds including 19-21, 23-27, aniline (compound 28) and bromobenzene (compound 29), dissolved in MeOH, was injected at five isochratic elution, at 40, 45, 50, 55, and 60% MeOH. Then the mixture was injected at fast gradient elution to establish the correlation from Eq. (1). The fast linear gradient elution was optimized for 30-100% MeOH in aqueous buffer with 10 min runtime.
(§2) Cucurbitacins lipophilicity was measured by RP-HPLC. […] Due to its high viscosity, aqueous MeOH required a shorter column than the one applied for ACN. First, the C18 columns were calibrated against a standard mixture, and the relationships established between the fast gradient tR and φ0 or published CHI (see Eqs. (2)-(4) from Table 2). Second, cucurbitacins were injected at fast gradient elution under similar conditions, and their CHI calculated (Table 4) from Eqs. (2)-(4). Eqs.

[3] = Chromatographic hydrophobicity index (CHI) by RP-HPLC in buffered acetonitrile; assay type: physicochemical; parameters: key: CHI = φ0 (isocratic hydrophobicity index), = A·tR + B; ACN % scale; conditions: for CHIACN (b): standard compounds, isochratic and gradient elution of standard mixture
Procedure: as §1
All standard compounds were purchased from Acros (Acros Organics, NJ). The chromatographic lipophilicity or hydrophobicity was determined applying Valkó's technique (Valkó et al., Anal. Chem. 69 (1997) 2022, the entire disclosure of which is herein incorporated by reference). A standard mixture of seven compounds was prepared in solution: theophylline (compound 19), benzimidazole (compound 20), acetophenone (compound 21), indole (compound 22), propiophenone (compound 23), butyrophenone (compound 24), and valerophenone (compound 25). […] The retention factor, log k=log((tR-t0)/t0), was calculated for each analyte from five good injections of […] sample. The dead time (t0) was measured by injecting NaNO3 together with the sample. Then, the log k values were plotted against isocratic ACN concentrations to establish the linear regression equations for each analyte. From each straight line the isocratic hydrophobicity index was computed, φ0=(intercept/slope). Further, the calibration mixture was injected at fast gradient elution, 0-22 min 0-100% ACN, and three additional minutes at 100% ACN. The φ0 values for the test compounds were plotted against gradient retention time and the linear equation determined from the following equation: φ0=CHI=AtR+B (1)
The gradient elution conditions were similar to the one from the first approach.
as §2

HSC-T6 cells [4] = test: Serum-driven HSC-T6 proliferation, experiment 2 (24 h, starved/quiescent cells); assay type: cell-based, rat; conditions: HSC-T6, 24 h, read-out: Experiment 2 EC50
Procedure: (§3) To overcome this problem, the amount of incubation time was increased to 24 h, and cucurbitacin activity measured on starved (Exp. 2) or proliferative (Exp. 3) cells (Table 8). Cells turned quiescent when serum was not supplemented for one day (Exp. 2). Activity of a few compounds was monitored on quiescent cells, and their activity compared to the ones measured on proliferating cells (Exp. 3).
(§4) We established several experimental conditions such as 4 hours of incubation time with cucurbitacin, and 2 day cell incubation with fresh media after challenging with cucurbitacin (Exp. 1). Other experiments involved addition of cucurbitacin for 24 hours over starved cells (Exp. 2) vs. proliferating cells (Exp. 3), and one day incubation of cells with fresh media after challenge. The 4 hour incubation period with cucurbitacin triggered anti-proliferation effect. This effect, however, was hindered by a second cycle of cell proliferation during the two-day cell growth period (see silybin, E and I glucosides, and for I-nPr). […] Because of that, the challenge time was increased to 24 hours (Exp. 2 and 3).
(§5) In experiment 3, only 40% of the cells divided. The ratio of EC50 values for exp. 2 and exp. 3 varied between 3.6 and 12.7. This may indicate differential cytotoxicity of silybin and cucurbitacin analogs over quiescent and active stellate cells. In other words, compounds show higher anti-proliferative activity on active cells than on quiescent cells.

HSC-T6 cells [5] = test: Cytotoxicity on HSC-T6 cells (experiment 3); assay type: cell-based, rat
Text: Cytotoxicity of all cucurbitacin analogs was additionally measured in experiment 3 (Table 8).

HepG2 cells = test: cells
Text: Experimental conditions were standardized on silybin. […]
The ratio of IC50-to-EC50 (hereafter T/A) is also indicated in this table, which gives the margin between toxic and cytoprotective concentrations.

HSC-T6 cells [6] = test: Serum-driven HSC-T6 proliferation, experiment 3 (24 h, proliferating cells); assay type: cell-based, rat; conditions: HSC-T6, 24 h, read-out: Experiment 3 EC50 (A)
Procedure: as §3, §4, §5

HSC-T6 cells [7] = test: Serum-driven HSC-T6 proliferation, experiment 1 (4 h challenge, two days drug-free growth); assay type: cell-based, rat
Procedure: The proliferation effect of serum on HSC-T6 cells was optimized and cucurbitacin antiproliferative activity was measured. Serum contains a large number of growth factors, hormones and other nutrients, which help cells to grow and multiply. Several trials were conducted. In experiment 1, cells were challenged with cucurbitacin analogs for 4 h and then cells were grown in drug-free media for two additional days.
HSC-T6 cells were photographed under phase-contrast microscope to record possible changes in cell morphology during experiment 1. […] We are monitoring specifically the effect of compound on the cells, cell recovery after 4 h challenge, and relative cell proliferation. […] Live cells are quantified at the end of the assay (row 4) with MTT dye.
We established several experimental conditions such as 4 hours of incubation time with cucurbitacin, and 2 day cell incubation with fresh media after challenging with cucurbitacin (Exp. 1). Other experiments involved addition of cucurbitacin for 24 hours over starved cells (Exp. 2) vs. proliferating cells (Exp. 3), and one day incubation of cells with fresh media after challenge. […] Because of that, the challenge time was increased to 24 hours (Exp. 2 and 3).
We modified this approach. Our assay included a second control (ZC) supplemented with no serum intended to measure cucurbitacin anti-proliferation effect relative to the number of cells generated during challenge instead of the total number of cells present in each well.

What does the source list for `CC(=O)c1ccccc1` [Acetophenone (21), acetophenone, reference compound]?
CHIACN (c) [1]: 64.90; CHIMeOH (b) [2]: 52.47 ± 0.05; CHIACN (b) [3]: 61.93 ± 0.05

What does the source list for `Cn1c(=O)c2[nH]cnc2n(C)c1=O` [Theophylline (19), theophylline, reference compound]?
CHIACN (c) [1]: 15.76; CHIMeOH (b) [2]: 25.76 ± 0.05; CHIACN (b) [3]: 32.63 ± 0.07

For `c1ccc2[nH]cnc2c1` [Benzimidazole (20), benzimidazole, reference compound], which “CHIACN (c)” value [1] is on record?
Its value is 30.71.

And the “CHIMeOH (b)” value [2]?
The value was 41.07 ± 0.04.

And the “CHIACN (b)” value [3]?
Its value is 43.18 ± 0.12.

What does the source list for `CCC(=O)c1ccccc1` [Propiophenone (23), propiophenone, reference compound]?
CHIACN (c) [1]: 78.41; CHIMeOH (b) [2]: 60.41 + 0.04; CHIACN (b) [3]: 71.72 + 0.15

For `COC1=CC2C(=CCC3C2(C)C(=O)CC2(C)C(C(C)(O)C(=O)CCC(C)(C)O)C(O)CC32C)C(C)(C)C1=O` [L-Me], which EC50 (HSC-T6 cells [4]; starved (quiescent) cells) is on record?
The EC50 was 1 µM.

And the CHIMeOH ([2]; buffered methanol pH 7.0, Econosil C18 150 mm, Eq. (4))?
Its CHIMeOH is 66.58.

What about the IC50 (HSC-T6 cells [5]; read-out: Experiment 3 IC50 (T)) of the same compound?
The IC50 was 6.7 µM.

What about the CHIACN1 ([3]; buffered acetonitrile pH 7.0, Alltima C18 250 mm, Eq. (2) from isocratic φ0) of the same compound?
Its CHIACN1 is 64.84.

What about the CHIACN2 ([3]; buffered acetonitrile pH 7.0, Eq. (3) calibrated against published CHI) of the same compound?
Its CHIACN2 is 65.95.

What about the EC50 (HepG2 cells; read-out: EC50 cytoprotection, Table 7, HepG2 against CCl4 toxicity, estimated) of the same compound?
The EC50 was 5 µM.

And the EC50 (HSC-T6 cells [6]; proliferating cells)?
The EC50 was 0.18 µM.

What about the EC50 (HSC-T6 cells [7]; HSC-T6, 4 h challenge, then two days drug-free media) of the same compound?
The EC50 was 10.8 µM.

With `COc1cc(C2Oc3cc([C@H]4Oc5cc(O)cc(O)c5C(=O)[C@@H]4O)ccc3OC2CO)ccc1O` (some centres unmarked) [Silybin, reference compound] as the compound, how does the EC50 (HSC-T6 cells [4]; Rattus norvegicus) read?
The EC50 was 68 µM.

And the “Experiment 3 IC50 (T)” value (HSC-T6 cells [5])?
The value was “non toxic”.

What about the “cell growth with compound alone” value (HepG2 cells; HepG2, 14 to 200 μM, absence of CCl4) of the same compound?
Its value is “up to 125%”.

And the “concentration giving complete protection from CCl4” value (HepG2 cells; HepG2, CCl4 4.5×10^−3 M)?
Its value is “higher than 100 μM”.

And the EC50 (HepG2 cells; Homo sapiens, HepG2, read-out: EC50 cytoprotection)?
Its EC50 is 45 µM.

What about the cytoprotection attained (HepG2 cells; text b199) of the same compound?
The cytoprotection attained was 100%.

And the EC50 (HSC-T6 cells [6]; Rattus norvegicus)?
Its EC50 is 18.8 µM.

What about the “Experiment 1 anti-proliferation activity reached” value (HSC-T6 cells [7]; EC50 could not be estimated) of the same compound?
The value was less than 50%.

And the “Experiment 1 anti-proliferation activity” value (HSC-T6 cells [7]; measured at 100 μM)?
Its value is “˜20%^a^”.
